Source: PubChem BioAssay AID248 (DTP/NCI, 2004)
“And” between values parts separate entries of the source, which are not always exact repeats. Equal values may be shown once. Toxic doses and inconclusive results are not listed. No stated cut-off is given here; in the data, active means T/C of 150% or more; inactive means T/C below 125%.

Test system: L1210 leukemia ip in BDF1 mice, survival T/C
Test: NCI In Vivo Anticancer Drug Screen. Data for tumor model L1210 Leukemia (intraperitoneal) in B6D2F1 (BDF1) mice
Conditions: endpoint: mean survival time, higher = longer survival
How it was run: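 Mice bearing the transplanted tumor received compound or vehicle. Survival of the treated group was divided by that of the vehicle-treated control group to give the ratio.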

[1] = dose: 100.0 mg/kg/injection, schedule: Q01DX001 (ip), vehicle: carboxymethylcellulose (CMC)
[2] = dose: 50.0 mg/kg/injection, schedule: Q01DX009 (ip), vehicle: saline
[3] = dose: 100.0 mg/kg/injection, schedule: Q01DX009 (ip), vehicle: saline
[4] = dose: 100.0 mg/kg/injection, schedule: Q04DX003 (ip), vehicle: saline
[5] = dose: 200.0 mg/kg/injection, schedule: Q01DX009 (ip), vehicle: saline
[6] = dose: 200.0 mg/kg/injection, schedule: Q04DX003 (ip), vehicle: saline
[7] = dose: 400.0 mg/kg/injection, schedule: Q01DX009 (ip), vehicle: saline
[8] = dose: 400.0 mg/kg/injection, schedule: Q04DX003 (ip), vehicle: saline
[9] = dose: 100.0 mg/kg/injection, schedule: Q04DX003 (ip), vehicle: Klucel (hydroxypropylcellulose) (HPC)
[10] = dose: 200.0 mg/kg/injection, schedule: Q04DX003 (ip), vehicle: Klucel (hydroxypropylcellulose) (HPC)
[11] = dose: 100.0 mg/kg/injection, schedule: Q01DX001 (ip), vehicle: saline
[12] = dose: 200.0 mg/kg/injection, schedule: Q01DX001 (ip), vehicle: saline
[13] = dose: 400.0 mg/kg/injection, schedule: Q01DX001 (ip), vehicle: saline

Measured: T/C

CCCCCCCCCCCCCCCCS(=O)(=O)N/N=C/c1ccc(Cl)cc1Cl
inactive: [1] 98 % of control | dose: 200.0 mg/kg/injection, schedule: Q01DX001 (ip), vehicle: carboxymethylcellulose (CMC) 101 % of control | dose: 400.0 mg/kg/injection, schedule: Q01DX001 (ip), vehicle: carboxymethylcellulose (CMC) 107 % of control

O=C(N[C@@H](c1ccccc1)[C@H](N=Cc1ccccc1)c1ccccc1)c1ccccc1
inactive: [2] 93 % of control | dose: 50.0 mg/kg/injection, schedule: Q04DX003 (ip), vehicle: saline 95 % of control | [3] 90 % of control | [4] 86 % of control and 92 % of control | [5] 87 % of control | [6] 94 % of control | [7] 95 % of control and 87 % of control | [8] 86 % of control and 92 % of control

N#CCN1CCOCC1
inactive: dose: 25.0 mg/kg/injection, schedule: Q01DX009 (ip), vehicle: saline 122 % of control | [2] 101 % of control | [3] 97 % of control and 98 % of control | [4] 103 % of control | [5] 110 % of control | [6] 97 % of control

Oc1ccccc1C=NC1CCCCC1.Oc1ccccc1C=NC1CCCCC1.[Co+2]
inactive: [9] 100 % of control | [10] 100 % of control

c1ccc2cc(-c3cc4ccccc4s3)ccc2c1
inactive: [11] 106 % of control | dose: 100.0 mg/kg/injection, schedule: Q01DX009 (ip), vehicle: acetone 98 % of control | dose: 100.0 mg/kg/injection, schedule: Q04DX003 (ip), vehicle: acetone 100 % of control | [12] 103 % of control | dose: 200.0 mg/kg/injection, schedule: Q01DX009 (ip), vehicle: acetone 104 % of control | dose: 200.0 mg/kg/injection, schedule: Q04DX003 (ip), vehicle: acetone 98 % of control | dose: 264.0 mg/kg/injection, schedule: Q01DX009 (ip), vehicle: saline 110 % of control | [13] 104 % of control | [7] 115 % of control | dose: 400.0 mg/kg/injection, schedule: Q04DX003 (ip), vehicle: acetone 90 % of control

O=C(OCC(Cl)(Cl)Cl)c1ccc(Cl)cc1
inactive: dose: 100.0 mg/kg/injection, schedule: Q04DX002 (ip), vehicle: other 97 % of control | dose: 200.0 mg/kg/injection, schedule: Q04DX002 (ip), vehicle: other 97 % of control | dose: 400.0 mg/kg/injection, schedule: Q04DX002 (ip), vehicle: other 97 % of control

COc1ccc(-n2cnnn2)cc1
inactive: [11] 103 % of control | [12] 103 % of control | [13] 103 % of control

NC(Cc1ccc([N+](=O)[O-])cc1)C(=O)O (centres undefined)
inactive: dose: 100.0 mg/kg/injection, schedule: Q01DX001 (ip), vehicle: saline sonified 116 % of control | dose: 100.0 mg/kg/injection, schedule: Q01DX009 (ip), vehicle: saline with Tween-80 100 % of control and 98 % of control | [4] 111 % of control | dose: 200.0 mg/kg/injection, schedule: Q01DX001 (ip), vehicle: saline sonified 103 % of control | dose: 200.0 mg/kg/injection, schedule: Q01DX009 (ip), vehicle: saline with Tween-80 95 % of control | [6] 101 % of control | dose: 400.0 mg/kg/injection, schedule: Q01DX001 (ip), vehicle: saline sonified 103 % of control | dose: 400.0 mg/kg/injection, schedule: Q01DX009 (ip), vehicle: saline with Tween-80 100 % of control and 92 % of control | [8] 90 % of control

Cn1c2c(c3ccccc31)=NN1CCN=C1N=2
inactive: dose: 6.25 mg/kg/injection, schedule: Q04DX002 (ip), vehicle: saline 107 % of control | dose: 12.5 mg/kg/injection, schedule: Q04DX002 (ip), vehicle: saline 103 % of control

CCCCN(CCCC)CP(=S)(CN(CCCC)CCCC)CN(CCCC)CCCC
inactive: [9] 104 % of control | [10] 104 % of control | dose: 400.0 mg/kg/injection, schedule: Q04DX003 (ip), vehicle: Klucel (hydroxypropylcellulose) (HPC) 107 % of control

C/C=C1/C[C@@H](C)[C@@](C)(O)C(=O)OCC2=CCN3CC[C@@H](OC1=O)[C@@H]23
inactive: dose: 10.0 mg/kg/injection, schedule: Q01DX015 (ip), vehicle: carboxymethylcellulose (CMC) 93 % of control | dose: 20.0 mg/kg/injection, schedule: Q01DX015 (ip), vehicle: carboxymethylcellulose (CMC) 96 % of control | dose: 30.0 mg/kg/injection, schedule: Q01DX015 (ip), vehicle: carboxymethylcellulose (CMC) 98 % of control | [1] 105 % of control

CCN(CC)Cc1cc(-n2cnc3c(Cl)ncnc32)ccc1O
inactive: dose: 6.25 mg/kg/injection, schedule: Q04DX003 (ip), vehicle: saline 101 % of control | dose: 12.5 mg/kg/injection, schedule: Q04DX003 (ip), vehicle: saline 103 % of control | dose: 25.0 mg/kg/injection, schedule: Q04DX003 (ip), vehicle: saline 96 % of control

NC(N)=Nc1ccc(C(=O)Oc2ccc([N+](=O)[O-])cc2)cc1
inactive: dose: 100.0 mg/kg/injection, schedule: Q04DX003 (ip), vehicle: saline with Tween-80 108 % of control | dose: 200.0 mg/kg/injection, schedule: Q04DX003 (ip), vehicle: saline with Tween-80 94 % of control | dose: 400.0 mg/kg/injection, schedule: Q04DX003 (ip), vehicle: saline with Tween-80 89 % of control
